Assay results as given in PMC8636942, “Ab initio Designed Antimicrobial Peptides Against Gram-Negative Bacteria” (Frontiers in Microbiology, 2021).
In brackets after ≈: the same amount, converted by molar mass. Like-named read-outs stand apart in the source and are kept apart here. No end group written: not given here.

How the values were obtained:
human red blood cells = assay: Hemolysis assay; format: cell-based; details: 2% human RBCs (K2EDTA blood) in PBS, 1 h, 37°C
[1] = test system: E. coli ATCC 51659 (MDR, O157:H7); details: Mueller Hinton Broth; for Minimum inhibitory concentration (MIC): MDR strain, CLSI broth microdilution, 5 × 10^4 CFU/well, OD600, <10% of untreated control = clear, n = 3; for Minimum inhibitory concentration (MIC) / Antibacterial screening: growth inhibition / bactericidal activity: 16–20 h, 37°C; for Antibacterial screening: growth inhibition / bactericidal activity: 5 × 10^5 CFU/mL, OD600, n = 3
E. coli ATCC 51659 = format: cell-based, Escherichia coli
Experimental: (§1) The antimicrobial activity of the PHNX peptides (China Peptides custom synthesis) and LL-37 (AnaSpec 61302) against bacteria was determined as previously described ([Barksdale et al., 2016], [2017]). Briefly, 1 × 10^5 CFU per well of bacteria were incubated with different peptide concentrations (n = 3) in a 50-μl solution of 10 mM sodium phosphate buffer (3 h, 37°C). Serial dilutions were then prepared in 1X Dulbecco’s PBS and 8 μl of each dilution was spotted in triplicate on Tryptic Soy Agar plates, which were incubated (37°C, 24 h) and CFUs were counted ([Barksdale et al., 2016], [2017]). Bacterial survival at each peptide concentration was calculated based on the ratio of the number of colonies on each experimental plate and the average number of colonies observed for assay cultures lacking peptide. The peptide concentration required to kill 50% of the viable bacteria in the assay cultures (EC50) was determined by plotting percent survival as a function of the log of peptide concentration (log μg/ml) and fitting the data using GraphPad Prism 6 (GraphPad Software Inc., San Diego, CA, United States). For the purpose of graphing, samples that had no peptide (0 μg/ml) are plotted at 1 × 10^–7 μg/ml peptide. EC50 values were determined by fitting the data from the antimicrobial assays to a standard sigmoidal dose–response curve. […] Wells containing only 10 mM sodium phosphate buffer were used as sterility control.

S. aureus ATCC 33592 = format: cell-based, Staphylococcus aureus
Experimental: as §1

[2] = test system: E. coli ATCC 4157 (antibiotic susceptible); details: Mueller Hinton Broth; for Minimum inhibitory concentration (MIC): antibiotic susceptible strain, CLSI broth microdilution, 5 × 10^4 CFU/well, OD600, n = 3
[3] = test system: S. aureus ATCC 33592 (MDR, MRSA); details: Mueller Hinton Broth, 16–20 h, 37°C; for Minimum inhibitory concentration (MIC): MDR (MRSA) strain, CLSI broth microdilution, 5 × 10^4 CFU/well, OD600, n = 3; for Antibacterial screening: growth inhibition / bactericidal activity: peptide 100 μg/ml, 5 × 10^5 CFU/mL, OD600, n = 3
[4] = test system: S. aureus ATCC BAA-1718 (antibiotic susceptible); details: antibiotic susceptible strain; CLSI broth microdilution, Mueller Hinton Broth, 5 × 10^4 CFU/well, 16–20 h, 37°C, OD600; n = 3
[5] = peptide 100 μg/ml, OD540, DI water = full lysis, n = 3
[6] = same EC50 presented in micromolar units, 10 mM sodium phosphate buffer, 3 h, 37°C, read-out: EC50

| Molecule | Minimum inhibitory concentration (MIC) [1] | EC50 (E. coli ATCC 51659; ATCC 51659, 3 h) | Half maximal effective concentration (EC50) (E. coli ATCC 51659; ATCC 51659, 3 h) | EC50 (S. aureus ATCC 33592; ATCC 33592, 3 h) | also measured |
| --- | --- | --- | --- | --- | --- |
| CC[C@H](C)[C@H](NC(=O)[C@H](CCCCN)NC(=O)[C@H](CCC(=O)O)NC(=O)[C@H](CCCCN)NC(=O)[C@H](CO)NC(=O)[C@H](CCCCN)NC(=O)[C@H](CCCNC(=N)N)NC(=O)[C@H](Cc1ccccc1)NC(=O)[C@H](Cc1ccccc1)NC(=O)[C@H](CC(=O)O)NC(=O)CNC(=O)[C@H](CC(C)C)NC(=O)[C@@H](N)CC(C)C)C(=O)NCC(=O)N[C@@H](CCCCN)C(=O)N[C@@H](CCC(=O)O)C(=O)N[C@@H](Cc1ccccc1)C(=O)N[C@@H](CCCCN)C(=O)N[C@@H](CCCNC(=N)N)C(=O)N[C@H](C(=O)N[C@H](C(=O)N[C@@H](CCC(N)=O)C(=O)N[C@@H](CCCNC(=N)N)C(=O)N[C@H](C(=O)N[C@@H](CCCCN)C(=O)N[C@@H](CC(=O)O)C(=O)N[C@@H](Cc1ccccc1)C(=O)N[C@@H](CC(C)C)C(=O)N[C@@H](CCCNC(=N)N)C(=O)N[C@@H](CC(N)=O)C(=O)N[C@@H](CC(C)C)C(=O)N[C@H](C(=O)N1CCC[C@H]1C(=O)N[C@@H](CCCNC(=N)N)C(=O)N[C@H](C(=O)N[C@@H](CCC(=O)O)C(=O)N[C@@H](CO)C(=O)O)[C@@H](C)O)C(C)C)[C@@H](C)CC)C(C)C)[C@@H](C)CC [LL-37] | 32 µg/mL (≈ 7.12 µM) | – | – | – | Hemolysis (human red blood cells; peptide 1 μg/ml, OD540, n = 3): negligible hemolysis; Hemolysis (human red blood cells; [5]): approximately 40% |
| FGKLLKLGKGLGG [PHNX-2] | >100 µg/mL | > 7780 nM | – | – | EC50 (S. aureus ATCC 33592; [6]): > 7780 nM |
| FGKLLKLGKGLKG [PHNX-3] | >100 µg/mL | – | >10 µg/mL | – | EC50 (S. aureus ATCC 33592; [6]): > 7340 nM |
| FIGAIASYLKKFR [PHNX-6] | >100 µg/mL | 1720 nM | ≤ 10 µg/mL | 5240 nM | – |
| FLIKILKGGKGGK [PHNX-5] | >100 µg/mL | 3640 nM | ≤ 10 µg/mL | > 7360 nM | – |
| FLLKIVALLKKKLL [PHNX-1] | – | 80 nM | ≤ 10 µg/mL | 140 nM | – |
| FLLKLGLGKKKLL [PHNX-4] | – | 1980 nM | ≤ 10 µg/mL | 3290 nM | – |
| GLMDTVKNAAKNLAGQLLD KIKCKITG (disulfide) [PHNX-8] | 64 µg/mL | – | – | – | EC50 (E. coli ATCC 51659; [6]): 20 nM; Half maximal effective concentration (EC50) (S. aureus ATCC 33592; low salt: 10 mM sodium phosphate buffer, 1 × 10^5 CFU per well, 3 h, 37°C, CFU counting, sigmoidal fit, n = 3): 3.31 µg/mL; EC50 (S. aureus ATCC 33592; [6]): 1120 nM; Antibacterial screening: growth inhibition / bactericidal activity ([1]; peptide 100 μg/ml): showed activity; Antibacterial screening: bacterial survival ([1]; peptide 100 μg/ml, Figure 3C): ~0%; Minimum inhibitory concentration (MIC) ([2]; 16–20 h, 37°C): 32 µg/mL; Antibacterial screening: growth inhibition / bactericidal activity ([2]; peptide 100 μg/ml, 5 × 10^5 CFU/mL, 16–20 h, 37°C, OD600, n = 3): showed activity; Antibacterial screening: bacterial survival ([2]; peptide 100 μg/ml, Figure 3A): ~0% |
| GVVDIIKGAGKKFAKGLAGKIANKK [PHNX-7] | – | 20 nM | ≤ 10 µg/mL | 830 nM | – |
| KRFKKFFRKLKKSVKKRAKEFFKKPRVIGVSIPF [BF-CATH, reference compound] | 8 µg/mL | – | – | – | Antibacterial screening: growth inhibition / bactericidal activity ([1]; peptide 100 μg/ml): 100%; Minimum inhibitory concentration (MIC) [3]: 64 µg/mL; Antibacterial screening: growth inhibition / bactericidal activity [3]: 100%; Minimum inhibitory concentration (MIC) ([2]; 16–20 h, 37°C): 4 µg/mL |
| VRLIVAVRIWRR-NH2 (C-terminus assumed) [IDR-1018] | ~16 µg/mL | – | – | – | Hemolysis (human red blood cells; peptide 1 μg/ml, OD540, n = 3): negligible hemolysis; Hemolysis (human red blood cells; peptide 10 μg/ml, OD540, n = 3): ~10%; Hemolysis (human red blood cells; [5]): approximately 40%; Antibacterial screening: growth inhibition / bactericidal activity ([1]; peptide 100 μg/ml): 100%; Minimum inhibitory concentration (MIC) [3]: ~16 µg/mL; Antibacterial screening: growth inhibition / bactericidal activity [3]: 100%; Minimum inhibitory concentration (MIC) [4]: ~16 µg/mL |
